Measurements published in article PMC10660337, “Mutate and Conjugate: A Method to Enable Rapid In-Cell Target Validation” (ACS Chemical Biology, 2023).
“And” between values parts separate entries of the source, which are not always exact repeats. Identical values can stand only once. Values belong to the molecule of their own block, whether it stands above or below them.

Columns and labels:
BRD4(1) = system: BRD4(1); set-up: method as in PMID 36378954; details: cited from earlier work
BRD4(1)^L94C [1] = molecular target: T1, BRD4(1)^L94C (Homo sapiens, UniProt O60885, L94C); assay: Protein LCMS labeling assay 2 (diverse reactive fragment screen); assay type: binding; details: 1 μM protein, 4 °C, 24 h
T1 construct: Characterization of His6-BRD4(1)L94C; made in house; host or cells: E. coli BL21 (DE3)
Method: To investigate whether screening of an unbiased set of covalent fragments could identify ligands for BRD4(1)^L94C, we evaluated 250 previously published cysteine-reactive compounds, comprising 138 acrylamide- and 112 chloroacetamide-functionalized reactive fragments with molecular weights ranging from 152 to 300 Da.[44] Due to the higher throughput of this screening assay, the conditions varied compared to “labeling assay 1”. In this case, 1 μM BRD4(1)^L94C was incubated with either a chloroacetamide fragment (50 μM) or an acrylamide fragment (200 μM) at 4 °C for 24 h (referred to as “labeling assay 2”). Samples were then analyzed using protein LCMS, where a positive hit was classified as a single protein labeling event with a mass shift corresponding to the mass of the fragment of ±2 Da and a labeled peak of >20% intensity. Of the 250 diverse reactive compounds screened against BRD4(1)^L94C, only one chloroacetamide and one acrylamide fragment were classified as hits (Figures 5A and S10). […]
Experiments were performed in a protein LCMS assay buffer, with 10 µM protein, and 50 µM of the desired compound with a final DMSO concentration of 0.5% (Table S16). […] Data was analysed and processed using MassLynx. […] Covalent labeling was calculated using intensities of the unlabeled and labeled protein (Equation 1). […]

BRD4(1)^L94C [2] = molecular target: T1, BRD4(1)^L94C; assay: Protein LCMS labeling assay 1; assay type: binding; details: 50 μM compound, 10 µM protein, 37 °C, mean of three ± s.e.m., ND = not detectable
Method: (§1) The resulting library of 22 fragments was screened for BRD4(1)^L94C binding at a concentration of 50 μM using a protein LCMS assay (referred to as “labeling assay 1”). […] To assess the selectivity of the fragments for the labeling of C94, hits were also screened against BRD4(1)^WT under the same conditions. […] The acrylamide-based fragment, 12, labeled 98% of BRD4(1)^L94C after 4 h. While 95% of the protein was labeled once, 3% of the protein was labeled twice (Figure 5D). […] Fragment 14, designed by appending a β-dimethylaminomethyl acrylamide to the structure of 12, led to 74% of singly labeled BRD4(1)^L94C after 4 h with no labeling of BRD4(1)^WT observed (Table 1 and Figure 5E). […] However, only 9.9% of labeled BRD4(1)^L94C was observed, substantially lower than the 56% labeling observed for the corresponding 3-methyl regioisomer 10 (Table 1). […]
(§2) Assays were performed in 1.5 mL Eppendorf tubes at 37 °C and gently shaken, unless otherwise stated.
(§3) Experiments were performed in a protein LCMS assay buffer, with 10 µM protein, and 50 µM of the desired compound with a final DMSO concentration of 0.5% (Table S16). Time points were taken at 0, 1 and 4 h, unless otherwise stated, where a 20 µL sample of the reaction mix was taken, diluted with 100 µL Milli-Q water, and flash frozen. Samples were thawed immediately prior to LCMS analysis on a Waters Xevo G2-S system (Waters) fitted with a ProSwift™ RP-2H PSDVB Reversed Phase HPLC Column (Thermofisher). Data was analysed and processed using MassLynx. The total ion chromatograms (TIC) were extracted (region containing protein) and the summed scans were deconvoluted (using MaxEnt). Covalent labeling was calculated using intensities of the unlabeled and labeled protein (Equation 1). Figures were made using GraphPad Prism 7.0.
(§4) Table S16. Buffer composition for protein LCMS.
(§5) Buffer Reagent Composition Amount per 1 L
(§6) Protein LCMS Assay Buffer HEPES 25 mM 6.0 g
(§7) Protein Labelling = Intensity of Labelled Peak × 100

BRD4(1)^WT [3] = molecular target: T2, BRD4(1)^WT (Homo sapiens, UniProt O60885); assay: Protein LCMS labeling assay 1; assay type: binding; details: 50 μM compound, 10 µM protein, 37 °C, 4 h; mean of three ± s.e.m.; ND = not detectable
T2 construct: Characterization of His6-BRD4(1)WT; made in house; host or cells: E. coli BL21 (DE3)
Method: Before introducing a Cys mutant into the first bromodomain of BRD4 [BRD4(1)], we wanted to rule out the possibility that the native Cys residues C125 and C136 (Figures 2A and S1), would react with electrophilic fragments. To test this, we incubated two KAc-mimicking methylisoxazole-based reactive fragments (1 and 2, Figure 2C) with purified BRD4(1)^WT.
as §1, §2, §3, §4, §5, §6, §7

BRD4(1)^L94C [4] = molecular target: T1, BRD4(1)^L94C; assay: AlphaScreen H4_1–20(KAc)4 peptide displacement; assay type: binding; details: mean of three ± s.e.m.
Method: Under these conditions, all three fragments displaced the peptide from BRD4(1)^L94C, which is consistent with the fragments binding to BRD4(1)^L94C in the expected location (Table 2). […] The longer the mutant protein and electrophile are incubated together, the more time there is for a covalent interaction to occur. […]
(§8) Dose response AlphaScreen™
(§9) The peptide (Table S17) was supplied at >95% purity by GenScript and was stored as 1 mM stocks in […]
(§10) Table S17. Amino acid sequences of peptides used in AlphaScreen™.
(§11) Peptide Amino Acid Sequence […]
(§12) The assay buffer (Table S18, pH 7.6) was filtered through a 0.22 μm filter before use. The buffer is stored at 4 °C as a 5× solution without bovine serum albumin (BSA), which was added on the day of use. The compounds, proteins, and peptides were dispensed into a ProxiPlate-384 Plus (Perkin Elmer) using a Thermo-Fisher electronic multi-channel pipette. For the incubation steps, the plates were sealed, shaken for 10 seconds at 600 rpm on a plate oscillator, and incubated at room temperature in darkness for 30 min or 3.5 h. Ni2+ chelate acceptor and streptavidin donor beads were prepared as a mixture in a 1:300 dilution (0.007 mg/mL final assay concentration, added to the plates and incubated for a further 30 min at room temperature. Plates were read using a SynergyTM 2 MultiMode Microplate Reader using the inbuilt AlphaScreen™ 384 ProxiPlate function: excitation 680 nm, 0.18 sec; emission […]
(§13) Table S18. Composition of assay buffer used in AlphaScreen™ experiments, adjusted to pH 7.6 using an aqueous NaOH […]
(§14) Reagent Composition Mass (mg) for 50 mL
(§15) 50 mM DMSO stock solutions of the compounds were serially diluted, and dispensed into wells (5 μL).
(§16) The protein-peptide mixes (7 μL) for each combination were prepared following the specified final assay concentration (Table S19), and dispensed into wells. Assay beads (8 μL) were added to attain a final assay volume of 20 μL. Dose response curves were obtained for each compound in triplicate, with serial 1:2 dilutions. Data was processed by fitting a four-parameter equation (Equation 2) to calculate IC50 values using Prism software.
(§17) Table S19. Final assay concentrations of each peptide-protein combination.
(§18) Protein Peptide Protein FAC (nM) Peptide FAC (nM)
(§19) Response = Bottom + Top − Bottom

BRD4(1)^WT [5] = molecular target: T2, BRD4(1)^WT; assay: AlphaScreen H4_1–20(KAc)4 peptide displacement; assay type: binding; details: 4 h incubation at RT; mean of three ± s.e.m.
Method: as §8, §9, §10, §11, §12, §13, §14, §15, §16, §17, §18, §19

BRD4(1)^L94C [6] = molecular target: T1, BRD4(1)^L94C; assay: Fluorescent labeling of purified protein (CuAAC with TAMRA-PEG3-azide, in-gel fluorescence); assay type: binding; details: 50 μM probe, 10 μM protein, 4 h, 37 °C, then CuAAC 1 h
Method: (§20) When 28, 29, 30, and 42 were incubated with either purified BRD4(1)^L94C or BRD4(1)^WT and subjected to a copper(I)-catalyzed alkyne–azide click reaction (CuAAC) reaction with the fluorescent TAMRA-PEG3-azide dye, all clickable probes labeled the mutant protein and could be visualized using fluorescence imaging of a gel (Figure 6).
Figure 6 Clickable probes 28, 29, 30, and 42 covalently label BRD4(1)^L94C and undergo a subsequent CuAAC reaction with TAMRA-PEG3 azide to fluorescently label the protein, as shown by in-gel fluorescence imaging. Compounds 28, 29, 30, 41, and 42 (50 μM) were incubated with purified BRD4(1)^L94C or BRD4(1)^WT (10 μM) for 4 h at 37 °C, followed by CuAAC reaction with TAMRA-PEG3 azide for 1 h and separation of components by SDS-PAGE. For all compounds other than 30, only labeling of BRD4(1)^L94C was observed. […]
Fluorescent labeling of purified proteins
Assays were performed in 1.5 mL Eppendorf tubes at 37 °C, and gently shaken, unless otherwise stated.
The desired click probe (50 µM) was incubated with protein (10 µM) in protein LCMS buffer for 4 h, after which TAMRA-PEG3-Azide (200 µM), TCEP·HCl (1 mM), TBTA (100 µM), and CuSO4 (1 mM) were added and incubated for a further 1 h at room temperature in the dark. A 25 µL sample of the […]
reaction mix was taken and 8 µL of Lamelli buffer added, and the samples denatured by heating at 95 °C for 10 min. Samples were separated by gel electrophoresis on NuPAGE™ 4–12%, Bis-Tris precast polyacrylamide gels (Thermofisher). Following electrophoresis, gels were stained for 15 min with InstantBlueTM Coomasie® stain (Abcam), destained, and imaged using Bio-rad molecular imager.
Bio-rad Image Lab 6.1 was used to process the data. […]
InstantBlueTM Coomasie® stain (Abcam), destained, and imaged using Bio-rad molecular imager. […]
MEM media. Cells were then harvested and lysed using the previously described protocol above. […]

BRD4(1)^WT [7] = molecular target: T2, BRD4(1)^WT; assay: as above; assay type: binding; details: 50 μM probe, 10 μM protein, 4 h, 37 °C, then CuAAC 1 h
Method: as §20
Figure 6 Clickable probes 28, 29, 30, and 42 covalently label BRD4(1)^L94C and undergo a subsequent CuAAC reaction with TAMRA-PEG3 azide to fluorescently label the protein, as shown by in-gel fluorescence imaging. Compounds 28, 29, 30, 41, and 42 (50 μM) were incubated with purified BRD4(1)^L94C or BRD4(1)^WT (10 μM) for 4 h at 37 °C, followed by CuAAC reaction with TAMRA-PEG3 azide for 1 h and separation of components by SDS-PAGE. For all compounds other than 30, only labeling of BRD4(1)^L94C was observed.
as §15
The protein-peptide mixes (7 μL) for each combination were prepared following the specified final assay concentration (Table S19), and dispensed into wells. […]
Assays were performed in 1.5 mL Eppendorf tubes at room temperature, in the dark, and gently shaken, unless otherwise stated. […] Data was analysed and processed using MassLynx. […]
Gels were imaged for fluorescence using Bio-rad molecular imager and then stained for 15 min with […]

Compound: Cc1noc(C)c1-c1ccccc1 [4-phenyl-3,5-dimethylisoxazole]
- IC50 (BRD4(1)): 50 µM

- Labeling of BRD4(1)^L94C, labeling assay 2 (BRD4(1)^L94C [1]; chloroacetamide fragment 50 μM): 27%
Compound: O=C(CCl)Nc1nc(-c2cccs2)cs1 [Compound 26]

- Labeled Protein (%) L94C 1 h (BRD4(1)^L94C [2]; 1 h): 17 ± 1.0%
- Labeled Protein (%) L94C 4 h (BRD4(1)^L94C [2]): 61% and 61 ± 2.5%
- Labeled Protein (%) WT 4 h (BRD4(1)^WT [3]): no covalent binding
- Labeling of BRD4(1)^L94C, labeling assay 2 (BRD4(1)^L94C [1]; acrylamide fragment 200 μM): 89%
- IC50 (BRD4(1)^L94C [4]; IC50 (μM) L94C 1 h, 1 h incubation at RT): 15.5 ± 3.2 µM
- IC50 (BRD4(1)^L94C [4]; IC50 (μM) L94C 4 h, 4 h incubation at RT): 2.48 µM and 2.5 µM
- IC50 (BRD4(1)^WT [5]): > 100 µM
Compound: C=CC(=O)Nc1ccc(N2CCCC2=O)c(OC)c1 [Compound 27]

- Labeled Protein (%) L94C 4 h (BRD4(1)^L94C [2]): 2% and 2.0 ± 0.0%
- Labeling of purified BRD4(1)^L94C, in-gel fluorescence (BRD4(1)^L94C [6]): no labeling
- Labeling of purified BRD4(1)^WT, in-gel fluorescence (BRD4(1)^WT [7]): no labeling
Compound: C#CCN(C)C/C=C/C(=O)Nc1ccc(N2CCCC2=O)c(OC)c1 [Compound 41]
